The results in this text go back to ChEMBL document CHEMBL5614399, “Design and Assessment of First-Generation Heterobifunctional PPARα/STING Modulators” (ACS Med Chem Lett, 2024).

The source made the active and inactive calls. The rule behind the calls is not given here.

For experiment [1], the system named is 661W. The experiment can be described thus: Cytoprotective activity against 4HNE-induced mouse 661W cells assessed as reduction in ROS level at 1 uM preincubated for 2 hrs followed by 4-HNE addition and measured after 24 hrs in presence of A229 by CM-H2DCFDA staining based fluorescence analysis. Type of experiment: functional, cell-based. Conditions: time 26.0 hrs.

The test system of experiment [2] is 661W. The experiment can be described thus: Cytoprotective activity against 4HNE-induced mouse 661W cells assessed as reduction in ROS level at 0.5 uM preincubated for 2 hrs followed by 4-HNE addition and measured after 24 hrs in presence of A229 by CM-H2DCFDA staining based fluorescence analysis. The settings on record: time 26.0 hrs. Type of experiment: functional, cell-based.

As for `O=C(Nc1ccc(O)c(NS(=O)(=O)c2ccc(F)cc2)c1)c1ccc(-c2ccccc2)cc1`, the result in experiment [1] and in experiment [2] was Active.
